ChEMBL document CHEMBL1144007, “Activity of Mannich bases of 7-hydroxycoumarin against Flaviviridae” (Bioorg Med Chem, 2008)
The source made the active and inactive calls.

Columns and labels:
[1] = Cytotoxicity against human MT4 cells after 96 hrs by MTT method; format: cell-based
Reovirus sp. = experiment: Antiviral activity against Reovirus; format: functional, organism-based
[2] = tested on: Bovine viral diarrhea virus 1; experiment: Antiviral activity against BVDV NADL in MDBK cells assessed as protection from virus-induced cytopathogenicity by MTT method; format: functional, organism-based; settings: Bovine viral diarrhea virus isolates and strains
Coxsackievirus B2 = experiment: Antiviral activity against coxsackie B2 virus; format: functional, organism-based
Yellow fever virus = experiment: Antiviral activity against YFV in BHK cells assessed as protection from virus-induced cytopathogenicity by MTT method; format: functional, organism-based
Poliovirus 1 = experiment: Antiviral activity against Human poliovirus 1 Sabin; format: functional
[3] = tested on: Respiratory syncytial virus; experiment: Antiviral activity against RSV A2 in VERO76 cells assessed as reduction of plaque number by MTT method; format: functional, organism-based; settings: human respiratory syncytial virus, A2, Vero 76
[4] = tested on: Vesicular stomatitis virus; experiment: Antiviral activity against vesicular stomatitis virus; format: functional, organism-based
[5] = tested on: Human immunodeficiency virus 1; experiment: Antiviral activity against HIV1; format: functional, organism-based
Vaccinia virus = experiment: Antiviral activity against vaccinia virus; format: functional, organism-based; settings: Orthopoxvirus vaccinia

O=c1ccc2ccc(O)c(CN3CCCCC3)c2o1
CC50 at 96 h [1]: > 100 µM
Activity (Reovirus sp.): inactive
EC50 [2]: > 100 µM
Activity (Coxsackievirus B2): inactive
EC50 (Yellow fever virus): > 100 µM
Activity (Poliovirus 1): inactive
EC50 [3]: > 100 µM
Activity [4]: inactive
Activity [5]: inactive
Activity (Vaccinia virus): inactive

O=c1ccc2ccc(O)c(CN3CCN(Cc4ccc5c(c4)OCO5)CC3)c2o1
CC50 at 96 h [1]: 13 µM
Activity (Reovirus sp.): inactive
EC50 [2]: > 100 µM
EC50 (Yellow fever virus): > 100 µM
Activity (Poliovirus 1): inactive
EC50 [3]: > 100 µM
Activity [4]: inactive
Activity [5]: inactive
Activity (Vaccinia virus): inactive

CCCCCCCCOc1ccc2c(=O)c(Cc3c(OC(C)=O)ccc4c(C)cc(=O)oc34)c(N(CC)CC)oc2c1
CC50 at 96 h [1]: > 100 µM
Activity (Reovirus sp.): inactive
EC50 [2]: > 100 µM
EC50 (Yellow fever virus): > 100 µM
Activity (Poliovirus 1): inactive
EC50 [3]: > 100 µM
Activity [4]: inactive
Activity [5]: inactive
Activity (Vaccinia virus): inactive

CC(=O)Oc1ccc2c(C)cc(=O)oc2c1Cc1c(N(C)C)oc2ccc3ccccc3c2c1=O
CC50 at 96 h [1]: > 100 µM
Activity (Reovirus sp.): inactive
EC50 [2]: > 100 µM
EC50 (Yellow fever virus): > 100 µM
Activity (Poliovirus 1): inactive
EC50 [3]: > 13 µM
Activity [4]: inactive
Activity [5]: inactive
Activity (Vaccinia virus): inactive

Cc1cc(=O)oc2c(CN3CCN(C)CC3)c(OC(=O)c3ccccc3)ccc12
CC50 at 96 h [1]: > 100 µM
Activity (Reovirus sp.): inactive
EC50 [2]: > 100 µM
EC50 (Yellow fever virus): > 100 µM
Activity (Poliovirus 1): inactive
EC50 [3]: > 100 µM
Activity [4]: inactive
Activity [5]: inactive
Activity (Vaccinia virus): inactive

CCC(=O)Oc1ccc2ccc(=O)oc2c1Cc1c(C)[nH]c2ccccc12
CC50 at 96 h [1]: 80 µM
Activity (Reovirus sp.): inactive
EC50 [2]: > 51 µM
EC50 (Yellow fever virus): > 100 µM
Activity (Poliovirus 1): inactive
EC50 [3]: > 100 µM
Activity [4]: inactive
Activity [5]: inactive
Activity (Vaccinia virus): inactive

CC(=O)Oc1ccc2c(C)cc(=O)oc2c1Cc1c[nH]c2ccccc12
CC50 at 96 h [1]: 100 µM
Activity (Reovirus sp.): inactive
EC50 [2]: ≥ 100 µM
EC50 (Yellow fever virus): > 81 µM
Activity (Poliovirus 1): inactive
EC50 [3]: > 100 µM
Activity [4]: inactive
Activity [5]: inactive
Activity (Vaccinia virus): inactive

COCCN(CCOC)c1oc2cc(OC)ccc2c(=O)c1Cc1c(OC(C)=O)ccc2c(C)cc(=O)oc12
CC50 at 96 h [1]: > 100 µM
Activity (Reovirus sp.): inactive
EC50 [2]: 61 µM
EC50 (Yellow fever virus): > 100 µM
Activity (Poliovirus 1): inactive
EC50 [3]: 5 µM
Activity [4]: inactive
Activity [5]: inactive
Activity (Vaccinia virus): inactive

COc1ccc2c(=O)c(Cc3c(OC(C)=O)ccc4ccc(=O)oc34)c(N3CCCC3)oc2c1
CC50 at 96 h [1]: > 100 µM
Activity (Reovirus sp.): inactive
EC50 [2]: > 100 µM
EC50 (Yellow fever virus): > 100 µM
Activity (Poliovirus 1): inactive
EC50 [3]: > 100 µM
Activity [4]: inactive
Activity [5]: inactive
Activity (Vaccinia virus): inactive

CCCOc1ccc2c(C)cc(=O)oc2c1CN1CCN(c2ccc(C(C)=O)cc2)CC1
CC50 at 96 h [1]: 25 µM
Activity (Reovirus sp.): inactive
EC50 [2]: 8 µM
EC50 (Yellow fever virus): > 100 µM
Activity (Poliovirus 1): inactive
EC50 [3]: > 100 µM
Activity [4]: inactive
Activity [5]: inactive
Activity (Vaccinia virus): inactive

Cc1cc(=O)oc2c(CN3CCN(C/C=C/c4ccccc4)CC3)c(OC(=O)c3ccccc3)ccc12
CC50 at 96 h [1]: 45 µM
Activity (Reovirus sp.): inactive
EC50 [2]: 19 µM
EC50 (Yellow fever virus): > 100 µM
Activity (Poliovirus 1): inactive
EC50 [3]: > 80 µM
Activity [4]: inactive
Activity [5]: inactive
Activity (Vaccinia virus): inactive

CC(=O)Oc1ccc2c(C)cc(=O)oc2c1Cc1c(-c2ccccc2)[nH]c2ccccc12
CC50 at 96 h [1]: > 100 µM
Activity (Reovirus sp.): inactive
EC50 [2]: > 100 µM
EC50 (Yellow fever virus): > 100 µM
Activity (Poliovirus 1): inactive
EC50 [3]: > 100 µM
Activity [4]: inactive
Activity [5]: inactive
Activity (Vaccinia virus): inactive

Cc1[nH]c2ccccc2c1Cc1c(OC(=O)CCCC(=O)O)ccc2ccc(=O)oc12
CC50 at 96 h [1]: 27 µM
Activity (Reovirus sp.): inactive
EC50 [2]: > 67 µM
EC50 (Yellow fever virus): > 100 µM
Activity (Poliovirus 1): inactive
EC50 [3]: > 92 µM
Activity [4]: inactive
Activity [5]: inactive
Activity (Vaccinia virus): inactive

CCCOc1ccc2c(C)cc(=O)oc2c1CN1CCc2ccccc2C1
CC50 at 96 h [1]: > 100 µM
Activity (Reovirus sp.): inactive
EC50 [2]: 20 µM
EC50 (Yellow fever virus): > 100 µM
Activity (Poliovirus 1): inactive
EC50 [3]: > 93 µM
Activity [4]: inactive
Activity [5]: inactive
Activity (Vaccinia virus): inactive

CC(=O)Oc1ccc2ccc(=O)oc2c1Cc1c(C)[nH]c2ccccc12
CC50 at 96 h [1]: 62 µM
Activity (Reovirus sp.): inactive
EC50 [2]: > 86 µM
EC50 (Yellow fever virus): > 73 µM
Activity (Poliovirus 1): inactive
EC50 [3]: > 100 µM
Activity [4]: inactive
Activity [5]: inactive
Activity (Vaccinia virus): inactive

CCC(=O)Oc1ccc2c(C)cc(=O)oc2c1Cc1c(C)[nH]c2ccccc12
CC50 at 96 h [1]: 31 µM
Activity (Reovirus sp.): inactive
EC50 [2]: > 87 µM
EC50 (Yellow fever virus): > 100 µM
Activity (Poliovirus 1): inactive
EC50 [3]: 45 µM
Activity [4]: inactive
Activity [5]: inactive
Activity (Vaccinia virus): inactive
